Source: US9040479B2, “HCV NS3 protease inhibitors” (RFS Pharma, LLC, priority 2012, dated 2015)
“And” between values parts separate entries of the source, which are not always exact repeats. Equal entries are not always repeated.

Legend:
[1] = Cytotoxicity assay in PBM cells; format: cell-based; settings: human, figure in parentheses not defined
Protocol: (§1) The toxicity of the compounds was assessed in Vero, human PBM, CEM (human lymphoblastoid), MT-2, and HepG2 cells, as described previously (see Schinazi R. F., Sommadossi J.-P., Saalmann V., Cannon D. L., Xie M.-Y., Hart G. C., Smith G. A. & Hahn E. F. Antimicrob. Agents Chemother. 1990, 34, 1061-67). Cycloheximide was included as positive cytotoxic control, and untreated cells exposed to solvent were included as negative controls. The cytotoxicity IC50 was obtained from the concentration-response curve using the median effective method described previously (see Chou T.-C. & Talalay P. Adv. Enzyme Regul. 1984, 22, 27-55; Belen'kii M. S. & Schinazi R. F. Antiviral Res. 1994, 25, 1-11).

[2] = Cytotoxicity assay in CEM cells; format: cell-based; settings: human, CEM (human lymphoblastoid) cells
Protocol: as §1

[3] = Cytotoxicity assay in Vero cells; format: cell-based; settings: African green monkey, figure in parentheses not defined
Protocol: as §1

[4] = tested on: HCV replicon RNA in Huh 7 Clone B cells; assay: HCV replicon assay (replicon RNA by real time RT-PCR); format: cell-based; settings: for HCV Ct: single replicates
Protocol: (§2) Following five days incubation (37° C., 5% CO2), total cellular RNA was isolated by using versaGene RNA purification kit from Gentra. Replicon RNA and an internal control (TaqMan rRNA control reagents, Applied Biosystems) were amplified in a single step multiplex Real Time RT-PCR Assay. The antiviral effectiveness of the compounds was calculated by subtracting the threshold RT-PCR cycle of the test compound from the threshold RT-PCR cycle of the no-drug control (ΔCt HCV). A ΔCt of 3.3 equals a 1-log reduction (equal to 90% less starting material) in Replicon RNA levels. The cytotoxicity of the compounds was also calculated by using the ΔCt rRNA values. (2′-Me-C) was used as the control. To determine EC90 and IC50 values^2, ΔCt: values were first converted into fraction of starting material^3 and then were used to calculate the % inhibition. […]

[5] = HCV replicon assay, cytotoxicity from rRNA Ct values; format: cell-based; settings: human, Huh 7 Clone B cells containing HCV replicon RNA; from rRNA, Huh 7 Clone B cells
Protocol: as §2

[6] = tested on: Huh 7 Clone B cells (rRNA); assay: as above; format: cell-based; settings: for rRNA Ct: single replicates
Protocol: as §2

HepG2 cells = HepG2 cells incubated with 10 μM; cited from earlier work
[7] = Hepatitis C virus, Huh-7, 120 h, HCV replicon, five days incubation

C=C[C@@H]1C[C@]1(NC(=O)[C@@H]1C[C@@H](OC(=O)N2Cc3cccc(F)c3C2)CN1C(=O)[C@@H](NC(=O)C(C)(C)C(F)(F)F)C(C)(C)C)C(=O)NS(=O)(=O)C1CC1 [drawing 11]
IC50 [1]: > 100 µM | IC50 [2]: 85.1 µM | IC50 [3]: ≥ 100 µM

C=C[C@@H]1C[C@]1(NC(=O)[C@@H]1C[C@@H](OC(=O)N2Cc3cccc(F)c3C2)CN1C(=O)[C@@H](NC(=O)C(C)(C)C(F)(F)F)C(C)(C)C)C(=O)NS(=O)(=O)C1CC1 [drawing 12]
% Inhit (HCV) ([4]; 3 nM): −33.8% | DCt HCV ([4]; 3 nM): −0.4 | HCV Ct Average ([4]; 3 nM): 22.8 | HCV Ct ([4]; 3 nM): 22.6 (2×) and 23.2 | % Inhit (HCV) ([4]; 10 nM): 91.7% | DCt HCV ([4]; 10 nM): 3.6 | HCV Ct Average ([4]; 10 nM): 26.8 | HCV Ct ([4]; 10 nM): 27.0 and 26.9 and 26.6 | % Inhit (HCV) ([4]; 33 nM): 98.0% | DCt HCV ([4]; 33 nM): 5.7 | HCV Ct Average ([4]; 33 nM): 28.9 | HCV Ct ([4]; 33 nM): 29.2 and 29.1 and 28.4 | % Inhit (HCV) ([4]; 100 nM): 99.4% | DCt HCV ([4]; 100 nM): 7.3 | HCV Ct Average ([4]; 100 nM): 30.5 | HCV Ct ([4]; 100 nM): 30.3 and 30.5 and 30.8 | EC50 [4, 7]: 7.7 nM | EC90 [4, 7]: 9.9 nM | CC50 at 5 days [5]: > 100 nM | DCt rRNA ([6]; 3 nM): −0.8 | rRNA Ct Average ([6]; 3 nM): 19.2 | rRNA Ct ([6]; 3 nM): 19.2 and 19.3 and 18.9 | DCt rRNA ([6]; 10 nM): −0.9 | rRNA Ct Average ([6]; 10 nM): 19.0 | rRNA Ct ([6]; 10 nM): 19.2 and 18.9 and 19.0 | DCt rRNA ([6]; 33 nM): −0.8 | rRNA Ct Average ([6]; 33 nM): 19.1 | rRNA Ct ([6]; 33 nM): 19.2 (2×) and 19.1 | DCt rRNA ([6]; 100 nM): −1.0 | rRNA Ct Average ([6]; 100 nM): 19.0 | rRNA Ct ([6]; 100 nM): 19.0 and 18.8 and 19.2 | inhibition at 0.003 µM ([6]; Homo sapiens, Huh-7, 3 nM, read-out: % inhib. rRNA): -74.8% | inhibition at 0.01 µM ([6]; Homo sapiens, Huh-7, 10 nM, read-out: % inhib. rRNA): -89.1% | inhibition at 0.033 µM ([6]; Homo sapiens, Huh-7, 33 nM, read-out: % inhib. rRNA): -75.6% | inhibition at 0.1 µM ([6]; Homo sapiens, Huh-7, 100 nM, read-out: % inhib. rRNA): -95.2%

O=c1[nH]c(=O)n([C@@H]2O[C@H](CO)[C@@H](O)[C@@H]2F)cc1I [fialuridine, 1,2′-deoxy-2′-fluoro-1-D-arabinofuranosly-5-iodo-uracil]
morphological changes in mitochondria (electron micrographs) (HepG2 cells): enlarged mitochondria with morphological changes consistent with mitochondrial dysfunction
